In PMC6862080, “Blood Compatibility—An Important but Often Forgotten Aspect of the Characterization of Antimicrobial Peptides for Clinical Application” (International Journal of Molecular Sciences, 2019):

Tests used:
platelets = assay: SEM imaging of platelet morphology in PRP; assay type: cell-based, human; settings: 128 μg/mL, 2 h, 37 °C
Method: Since it was observed that some AMPs are able to activate the plasmatic coagulation system of heparinized and citrate anticoagulated blood, the influence of this peptides on platelets was investigated. For this purpose, fresh heparinized and citrated blood were collected from three donors. The blood was centrifuged at 500 g for 5 min and platelet rich plasma (PRP) was obtained. The PRP was incubated at 37 °C for 2 h with 128 μg/mL AMP, PMB, and LL-37. PRP without any additives served as the control. After incubation, the platelet number was determined by a Sysmex Automated Hematology Analyzer KX-21-N (Kobe, Japan). In addition, the PRP samples were prepared for SEM to visualize the morphology of the thrombocytes. After incubation, 10 μL PRP were diluted with 990 μL PBS (0.01 M) and filtered through a 0.2 μm membrane (Membrane Filter Isopore 0.2 μm, Merck, Darmstadt, Germany). The platelets were retained on the membrane, washed with 1 mL PBS, and fixed with 1 mL glutaraldehyde solution (2.5% glutaraldehyde in physiological saline solution). After an incubation time of 60 min, the samples were dehydrated using a series of ethanol (30%, 50%, 60%, 70%, 80%, 90%, and 100%). Afterwards the samples were dried overnight at RT, sputtered with gold and visualized with a scanning electron microscope (FLEXSem 1000, Hitachi, Japan).

erythrocyte membranes [1] = assay: Hemolysis in whole blood (Kahn method); assay type: cell-based, human; settings: citrate anticoagulated whole blood, 60 min 37 °C, Kahn method, n = 3, control 3.7 ± 1.9
Method: (§1) Hemolysis was tested with fresh citrate anticoagulated blood from healthy volunteers as well as with blood cells which were suspended in phosphate buffered saline (10 mM pH 7.4). Afterwards, 100 μL AMP solution was added to 500 μL blood to finally achieve AMP concentrations of 8, 32, and 128 μg/mL. As the negative and positive control, 100 μL PBS buffer and 100 μL 12% Triton-X buffer was added to 500 μL blood, respectively. After incubation on an orbital shaker for 60 min at 37 °C, the cells were removed by centrifugation and 100 μL of the supernatant were transferred to a 96 well microplate for hemolysis measurement. The hemolysis was calculated from the extinction at the wavelengths 562, 578, and 598 nm with a Synergy 2 microplate reader (BioTek, Winooski, VT, USA) according to the method published by Kahn.

erythrocyte membranes [2] = assay: Hemolysis in RBC suspended in PBS (Kahn method); assay type: cell-based, human; settings: 60 min 37 °C, Kahn method, n = 3, control 8.5 ± 4.7
Method: as §1

S. aureus (ATCC 12600) = assay: microbe, parasite or virus in culture; assay type: cell-based; settings: DIN 58940-8, Müller-Hinton broth, overnight 37 °C, turbidity 620 nm
LPS from E. coli = assay: Endotoxin inactivation in human serum, chromogenic LAL test (E. coli LPS); assay type: biochemical; settings: 500 ng/mL peptide, 5 ng/mL LPS, n = 3
Method: (§2) The LPS neutralization study in serum was conducted using a chromogenic Limulus Amebocyte Lysate (LAL) test (Charles River Laboratories, MA, USA). The LAL test is the most established method for quantifying LPS. This method uses amebocyte lysate from Limulus polyphemus, wherein the presence of LPS triggers a defense mechanism that induces coagulation. The LAL test is used successfully for detection of LPS in a wide variety of industrial, pharmaceutical, and research applications, such as water supplies, parenteral fluids, drugs for intravenous administration, and certain biologic fluids (e.g., cerebrospinal fluid). Therefore, serum, which was obtained from freshly drawn blood, was spiked with 500 ng/mL AMPs, PMB or LL-37 before adding 5 ng/mL LPS from E. coli or P. aeruginosa. As positive and negative controls, native serum with and without LPS was used, respectively. Endotoxin activity was measured using the LAL assay according to the manufacturer’s specifications.

plasmatic coagulation [3] = assay: Activation of the clotting cascade in heparinized plasma; settings: heparinized (0.5 IU/mL) plasma, 128 μg/mL, 37 °C, 120 min, turbidity at 600 nm
Method: (§3) Plasma spiked with MES buffer without AMP was used as the negative control. […] Samples were incubated at 37 °C for 120 min. Coagulation was determined by turbidity measurement at 600 nm using a well plate reader.

E. coli (ATCC 11303) = assay: microbe, parasite or virus in culture; assay type: cell-based; settings: DIN 58940-8, Müller-Hinton broth, overnight 37 °C, turbidity 620 nm
plasmatic coagulation [4] = assay: Activation of the clotting cascade in citrated plasma; settings: citrated (17 mM) plasma, 128 μg/mL, 37 °C, 120 min, turbidity at 600 nm
Method: as §3

E. coli and S. aureus = assay: Scanning electron microscopy of bacterial cell wall damage; assay type: cell-based; settings: 128 μg/mL, overnight culture at 37 °C, 2 × 10^5–8 × 10^5 CFU/mL
Method: In order to verify and to visualize the impact of AMPs on the bacterial membrane, electron microscopy was conducted. Therefore, bacterial suspensions of E. coli and S. aureus with a concentration of 2 × 10^5–8 × 10^5 CFU/mL were incubated with 128 μg/mL of one AMP (LF11-322-C8) and PMB in a microplate over night at 37 °C. After overnight culture, the bacteria were prepared for SEM. To achieve this, the bacteria suspensions were filtered through a sterile filter (Swinnex filter holders, Merck Millipore, Burlington, MA, USA). The filters with the collected bacteria were than washed with PBS (10 mM, pH 7.2) and fixed with a 2.5% glutaraldehyde solution (Carl Roth, Karlsruhe, Deutschland). The fixed specimens were gradually dehydrated by increasing ethanol solutions (10% to 100%) and sputtered with gold (Q150R ES Sputter Coater, Quorum Technologies Ltd., East Sussex, UK) prior to examination with a scanning electron microscope (FlexSEM 1000, Hitachi, Tokyo, Japan).

[5] = test system: LPS-stimulated leukocytes; settings: whole blood, PMB serum level between 100 to 200 ng; cited from earlier work
Method: Past studies have shown that a PMB serum level between 100 to 200 ng reduces the cytokine secretion of LPS-stimulated leukocytes up to 90% in whole blood. PMB directly interacts with the conserved lipid A region of the LPS molecule. […] In this study, it was tested whether the lactoferrin based peptides are able to form a complex with LPS similar to PMB, which would lead to a reduction of the inflammatory effect of LPS. The results (Figure 3) indicate that in c ...

LPS from P. aeruginosa = assay: Endotoxin inactivation in human serum, chromogenic LAL test (P. aeruginosa LPS); assay type: biochemical; settings: 500 ng/mL peptide, 5 ng/mL LPS, n = 3
Method: as §2

plasmatic coagulation [6] = assay: Clotting batch test in citrate plasma; assay type: biochemical, human; settings: citrate plasma, 37 °C, 60 min, turbidity 600 nm, fibrinogen and D-Dimer; also: key: −: no clotting observed, no D-dimers and normal fibrinogen level; +: clotting observed, high D-dimer level, no detectable fibrinogen serum level
Method: Since the acylated LF11-322 peptides cause plasmatic coagulation of citrate anticoagulated plasma, separate clotting experiments were performed with this peptide group. The aim was to check whether the coagulation activation is dependent on the AMP concentration and on the acyl chain length. […] Plasma without additives served as the negative control, whereas plasma spiked with CaCl2/MgCl2 (500/250 mM) solution to restore the physiological calcium and magnesium level in plasma was used as the positive control. Incubation was performed at 37 °C for 60 min. […] In order to ensure that the measured turbidity of the plasma is caused by fibrin formation, the fibrinogen and D-Dimer concentrations were additionally determined. During plasmatic clotting, the fibrinogen level decreases and the D-Dimer level in serum increases. Both were analyzed on a Sysmex CA560 with the corresponding reagents (Siemens Healthineers, Erlangen, Germany).

[7] = PBS pH 7.4, inoculum 2 × 10^5–8 × 10^5 CFU/mL

Polymyxin B [PMB, reference compound]
Platelet morphology by SEM, citrate anticoagulated PRP (in words) (platelets): morphologically intact platelets
Free Hemoglobin, BLOOD, 8 μg/mL (erythrocyte membranes [1]; peptide conc. 8 μg/mL): 3.5 ± 2.8 mg/dL
Free Hemoglobin, BLOOD, 32 μg/mL (erythrocyte membranes [1]; peptide conc. 32 μg/mL): 3.7 ± 1.4 mg/dL
Free Hemoglobin, BLOOD, 128 μg/mL (erythrocyte membranes [1]; peptide conc. 128 μg/mL): 2.6 ± 3.9 mg/dL
Free Hemoglobin, RBC in PBS, 128 μg/mL (erythrocyte membranes [2]; blood cells suspended in PBS 10 mM pH 7.4, highest peptide conc.): 1.9 ± 0.2 mg/dL
Free Hemoglobin, RBC in PBS, 8 μg/mL (erythrocyte membranes [2]; blood cells suspended in PBS 10 mM pH 7.4, peptide conc. 8 μg/mL): 14.9 ± 3.1 mg/dL
Free Hemoglobin, RBC in PBS, 32 μg/mL (erythrocyte membranes [2]; blood cells suspended in PBS 10 mM pH 7.4, peptide conc. 32 μg/mL): 18.9 ± 11.2 mg/dL
Minimal Inhibitory Concentration, S. aureus, 4% HSA (S. aureus (ATCC 12600); 4% human serum albumin): 64 µg/mL
Minimal Inhibitory Concentration, S. aureus, PBS + heparin (S. aureus (ATCC 12600); PBS containing 5 IU/mL heparin): > 128 µg/mL
Minimal Inhibitory Concentration, S. aureus, PBS (S. aureus (ATCC 12600); [7]): 8 µg/mL
Reduction of endotoxin activity of E. coli LPS (LPS from E. coli): 63 ± 7%
Plasma clot, Heparin Plasma (plasmatic coagulation [3]): −
Minimal Inhibitory Concentration, E. coli, 4% HSA (E. coli (ATCC 11303); 4% human serum albumin): 4 µg/mL
Minimal Inhibitory Concentration, E. coli, PBS + heparin (E. coli (ATCC 11303); PBS containing 5 IU/mL heparin): 4 µg/mL
Minimal Inhibitory Concentration, E. coli, PBS (E. coli (ATCC 11303); [7]): 2 µg/mL
Plasma clot, Citrated Plasma (plasmatic coagulation [4]): −
Lysis of bacteria cells seen by SEM (in words) (E. coli and S. aureus): not able to lyse S. aureus cells
Reduction of cytokine secretion of LPS-stimulated leukocytes [5]: up to 90%
Reduction of endotoxin activity of P. aeruginosa LPS (LPS from P. aeruginosa): 74 ± 7%
Clotting of citrate plasma, Peptide Concentration 8 μg/mL (plasmatic coagulation [6]): −
Clotting of citrate plasma, Peptide Concentration 32 μg/mL (plasmatic coagulation [6]): −
Clotting of citrate plasma, Peptide Concentration 128 μg/mL (plasmatic coagulation [6]): −
Clotting of citrate plasma, Peptide Concentration 256 μg/mL (plasmatic coagulation [6]): −
